The results in this text go back to US6410545B1, “Lipid lowering quinazoline dietary supplement composition” (Parker Hughes Institute, priority 1998, dated 2002).

Common to all, as to type: in vivo
In data set [1] the test system is C57B⅙ mice. In words: Blood chemistry, weight and histopathology of treated C57B⅙ mice. The procedure: […] A range of doses was administered. Control animals received vehicle alone. The effect of quinazoline derivatives on total cholesterol, LDL, HDL, liver enzymes, and glucose was analyzed. The mice tissues were also examined histologically.
Serum levels alanine aminotransferase (ALT), alkaline phosphatase (ALP), lactate dehydrogenase (LDH), blood urea nitrogen (BUN), creatinine, creatinine phosphokinase (CPK), and glucose were determined by using a Synchron CX5 Clinical System (Beckman Instruments, Inc., Fullerton, Calif.) following manufacturer's instructions. For the glucose tolerance test, blood glucose levels were determined using the portable One Touch Profile glucose meter (Lifescan, Milpitas, Calif., USA).
At the end of the experiment, the animals were sacrificed and the harvested tissues were fixed in 10% phosphate buffered formalin overnight, embedded, sectioned, and stained by hematoxylin and eosin (H&E). The stained sections were examined for pathological changes. For Oil Red O staining, the liver was excised and snap frozen in liquid nitrogen. Five micrometer thick sections were obtained using the LeicaCM1800 cryostat (Heerbrugg, Switzerland), stained in 0.5% Oil Red O in propylene glycol for 1 hour, destained in 85% propylene glycol for 1 minute, rinsed twice in distilled water, counterstained in Mayer's hematoxylin for a few seconds, rinsed twice in distilled water, and mounted in Crystalmount (Biomedia Corp., Foster City, Calif.). The Oil Red O stainable material at 400 X magnification was quantitated using the ImagePro plus program (Media Cybernetics, Silver Spring, Md., USA) in conjunction with a 3CCD camera (DAGE-MTI Inc., Michigan City, USA).

The test system of data set [2] is apo e−/− mice. The experiment in a line: Serum lipoprotein profile (VLDL-C, HDL-C) by FPLC in apo e−/− mice. The following applies: for HDL-C / VLDL-C: apo e−/− mice, one week. The procedure: (§1) Three- to four-week old apolipoprotein E deficient (apo E^−/−) mice were the progeny of breeding pairs of apo E knockout (apo EKO) mice obtained from Jackson Labs. (Bar Harbor, Me., USA). Mice were fed either regular rodent chow (5% fat and 0% cholesterol) (Teklad-LM 485, Harlan Teklad, Madison, Wis., USA), the Paigen's cocoa butter diet, or the Western diet (21.22% fat and 0.2% cholesterol) (Harlan Teklad, Madison, Wis., USA) for two weeks prior to treatment.
(§2) Animals were treated with test compounds by intraperitoneal injection daily for 7 days. A range of doses was administered. Control animals received vehicle alone. The effect of quinazoline derivatives on total cholesterol, LDL, HDL, liver enzymes, and glucose was analyzed. The mice tissues were also examined histologically.
Serum cholesterol profiles were examined by Fast Protein Liquid Chromatography (FPLC) using 100 μl of serum per run. The serum was passed over two Superose™ 6 HR 10/30 connected in tandem equilibrated in phosphate buffered saline (PBS), using the FPLC system from Pharmacia Biotech (Piscataway, N.J., USA) consisting of a controller LCC-501 plus connected to a UV detector (UV-MII), two P500 pumps, and a Frac-100 fraction collector. The FPLC was remotely controlled and operated by the FPLC director program operated on an IBM computer. The system was operated at a flow rate of 0.5 ml/minute and fractions were collected at 0.5 ml/fraction. Cholesterol concentration of each fraction was determined as described above and plotted against the fraction numbers to obtain the serum cholesterol profile.
To determine the serum concentrations of LDL/β-VLDL and HDL, the sums of the LDL/β-VLDL peak (fractions 29-35) and the HDL peak (fractions 53-63) were divided by 0.1. To obtain the IC50 and the minimum β-VLDL and HDL concentrations, the concentrations of β-VLDL and HDL were plotted against the dosage. Best fitted exponential decay curves were obtained using the equation: Concentration of HDL or LDL/β-VLDL=Aexp(−BX)+E, where A+E equals the concentration of HDL or LDL/β-VLDL at the dosage of 0 μg/day and E equals the mathematical minimum concentration of HDL or β-VLDL, and B equals 0.69/IC50. Best fitted curves were obtained using the Graphpad Inplot program, Graphpad Software, San Diego, Calif., USA.
(§3) On regular rodent chow, the serum total cholesterol level of apo e^−/− mice was 836±57 mg/dL (n=47). After one week therapy with 8 mg/kg/day WHI-P164 (n=12), the mean serum total cholesterol level was reduced to 551±29 mg/dL (p=0.02).
(§4) When challenged with a cholesterol-rich diet, these animals developed frank hypercholesterolemia due to delayed clearance of intestinal chylomicrons which shuttle the dietary cholesterol from the intestine to the liver. In the present study, all of the 46 ApoE-deficient mice that were fed Western diet (14) became severely hypercholesterolemic with a mean serum total cholesterol level of 1491±59 mg/dL. One week WHI-P164 therapy reduced the mean serum total cholesterol level of hypercholesterolemic apo e^−/− mice to 1194±84 mg/dL (p=O.006) at a dose level of 8 mg/kg/day (n=19) and to 876±57 mg/dL (p<0.0001) at a dose level of 40 mg/kg/day (n=17) (Table 3).

The test system of data set [3] is apo e−/− mice. The experiment in a line: Serum total cholesterol in apolipoprotein E deficient mice. Particulars: for Mean serum total cholesterol: apo e−/− mice, 8 mg/kg/day, one week. The procedure: as §1, §2
Serum total cholesterol was measured enzymatically using the cholesterol kit from Sigma Chemical Co. (St. Louis, Mo., USA). For liver tissue lipid measurements, lipids were extracted from homogenized hepatic tissues using the method of Bligh and Dyer (Bligh, et al., Can. J. Biochem. Phys. 1959, 37:911-917). One gram of liver tissue was homogenized in 1 ml of distilled water and extracted with 4 ml of chloroform/methanol (1:1, v/v). The chloroform phase containing the lipids was evaporated under a stream of nitrogen, the lipids dissolved in 100 μL of isopropanol, and subjected to cholesterol determination as described above. Triglyceride (TG) contents were determined using the TG kit from Sigma Chemical Co.
as §3, §4

Setting [4] is: C57B⅙ mice, indicated dose levels.
[5] abbreviates: hypercholesterolemic apo e−/− mice.

In the case of `COc1cc2ncnc(C(=O)c3cccc(Br)c3)c2cc1OC` [WHI-P164, 4-(3′-bromobenzoyl)-6,7-dimethoxyquinazoline], in data set [1] (setting [4]), the “Histopathologic examination of tissues” value is given as “did not reveal any drug related toxic lesions”; the “Liver enzymes (ALT, ALP, LDH) and BUN/Creatinine” value is given as “remained within normal limits”. For the same molecule, in data set [1] (C57B⅙ mice, indicated dose levels (1.6-16 mg/kg/day)), the “Clinical or laboratory signs of toxicity” value is “not associated with any obvious clinical or laboratory signs of toxicity”. Moreover, in data set [1] (treated C57B1/6 mice, 1 week), the ALP is reported as 101 ± 3 IU/L, the BUN is recorded as 25.4 ± 2.0 mg/dL, the Glucose is 201 ± 18 mg/dL and the LD-L came to 1402 ± 144 IU/L. This molecule registered a Net weight change in data set [1] (treated C57B1/6 mice, 1 week) of -0.26 ± 0.22 g. Besides, in data set [1] (treated C57B1/6 mice, 2 weeks), the ALP stood at 94 ± 10 IU/L, the ALT was 148 ± 54 IU/L, the LD-L is given as 459 ± 83 IU/L and the Net weight change is 1.88 ± 0.42 g. In addition, in data set [2] (Western diet, 40 mg/kg/day), the HDL-C amounted to 90 ± 4 mg/dL and the VLDL-C stood at 587 ± 4 mg/dL. In data set [2] (rodent chow, 8 mg/kg/day), the HDL-C came to 50 ± 10 mg/dL and the VLDL-C is 190 ± 13 mg/dL. In data set [2] (setting [5]), the “Reduction of β-VLDL/LDL-cholesterol levels” value was 63%. In addition, the Serum total cholesterol in data set [3] (apo e−/− (C57B1/6) mice, Western diet two weeks, then drug 1 week at 40 mg/kg/day, 40 mg/kg/day) came to 876 ± 57 mg/dL. Also, the “Mean serum total cholesterol” value in data set [3] (Western diet) worked out at 1194 ± 84 mg/dL. Also, in data set [3] (regular rodent chow), the “Mean serum total cholesterol” value came out at 551 ± 29 mg/dL. The “Reduction of total cholesterol levels” value in data set [3] (setting [5]) stood at 41%.
